# Test results taken from patent US8551984B2, “Aminopyrimidines as SYK inhibitors” (Merck Sharp & Dohme Corp., priority 2009, dated 2013).
# pIC50: −log10 of the molar value.
# Target: recombinant human SYK (GST-hSYK fusion protein) (Homo sapiens, UniProt P43405)
# Test: biochemical
# Conditions: rhSYK Activity (IC50), recombinant human GST-SYK 5 pM, ATP 25 μM, biotinylated substrate peptide 250 nM, HTRF, 10-dose titration
# Text: Homogeneous Time-Resolved Fluorescence (HTRF) Assay for the Recombinant Human SYK Enzyme:
row,pIC50,Compound
1,> 7.00,"Cc1cc(Nc2nccc(C(F)(F)F)n2)cc(-c2cnc([C@@]3(O)CC[C@H](C(=O)O)C(C)(C)C3)s2)c1Br [Example 111, (1S,4R)-4-[5-(2-bromo-3-methyl-5-{[4-(trifluoromethyl)pyrimidin-2-yl]amino}phenyl)-1,3-thiazol-2-yl]-4-hydroxy-2,2-dimethylcyclohexanecarboxylic acid]"

# Same assay, conditions: rhSYK Activity, Table 108A
row,pIC50,Compound
1,> 7.00,Cc1cc(Nc2nccc(OCCC3CN(C)CCO3)n2)cc(-c2cnc(C3(O)CCC3)s2)c1 (centres unmarked) [Example 108A-25]
2,> 7.00,Cc1cc(Nc2nccc(OC(C)CN3CC(C)OC3=O)n2)cc(-c2cnc(C3(O)CCC3)s2)c1 (centres unmarked) [Example 108A-27]
3,6.00 to 7.00,Cc1cc(Nc2nccc(OCCOc3cccc(O)c3)n2)cc(-c2cnc(C3(O)CCC3)s2)c1 [Example 108A-28]
4,> 7.00,Cc1cc(Nc2nccc(OCCCc3cccnc3)n2)cc(-c2cnc(C3(O)CCC3)s2)c1 [Example 108A-29]
5,> 7.00,Cc1cc(Nc2nccc(OCCN3CCCC3=O)n2)cc(-c2cnc(C3(O)CCC3)s2)c1 [Example 108A-30]
6,> 7.00,Cc1cc(Nc2nccc(OCCCCO)n2)cc(-c2cnc(C3(O)CCC3)s2)c1 [Example 108A-31]
7,> 7.00,Cc1cc(Nc2nccc(OCCO)n2)cc(-c2cnc(C3(O)CCC3)s2)c1 [Example 108A-34]
8,> 7.00,Cc1cc(Nc2nccc(OCCCO)n2)cc(-c2cnc(C3(O)CCC3)s2)c1 [Example 108A-35]
9,> 7.00,CCOc1ccnc(Nc2cc(C)cc(-c3cnc(C4(O)CCC4)s3)c2)n1 [Example 108A-36]
10,> 7.00,Cc1cc(Nc2nccc(OC(C)C)n2)cc(-c2cnc(C3(O)CCC3)s2)c1 [Example 108A-37]
11,> 7.00,Cc1cc(Nc2nccc([S+](C)[O-])n2)cc(-c2cnc(C3(O)CCC3)s2)c1 (centres unmarked) [Example 108A-38]
12,> 7.00,Cc1cc(Nc2nccc(S(C)(=O)=O)n2)cc(-c2cnc(C3(O)CCC3)s2)c1 [Example 108A-39]
13,> 7.00,CCSc1ccnc(Nc2cc(C)cc(-c3cnc(C4(O)CCC4)s3)c2)n1 [Example 108A-40]
14,6.00 to 7.00,CCCCSc1ccnc(Nc2cc(C)cc(-c3cnc(C4(O)CCC4)s3)c2)n1 [Example 108A-41]
15,> 7.00,Cc1cc(Nc2nccc(SC(C)C)n2)cc(-c2cnc(C3(O)CCC3)s2)c1 [Example 108A-43]
16,> 7.00,Cc1cc(Nc2nccc(SCCO)n2)cc(-c2cnc(C3(O)CCC3)s2)c1 [Example 108A-44]
17,> 7.00,Cc1cc(Nc2nccc(SCCCO)n2)cc(-c2cnc(C3(O)CCC3)s2)c1 [Example 108A-45]
18,> 7.00,Cc1cc(Nc2nccc(SCCCCO)n2)cc(-c2cnc(C3(O)CCC3)s2)c1 [Example 108A-46]

# Same assay, conditions: rhSYK Activity, Table 109
row,pIC50,Compound
1,> 7.00,CC(=O)N1CCC(Oc2ccnc(Nc3cc(N)cc(-c4cnc(C5(O)CCC5)s4)c3)n2)CC1 [Example 109-6]
2,6.00 to 7.00,O=C(Nc1cc(Nc2nccc(OC3CCOCC3)n2)cc(-c2cnc(C3(O)CCC3)s2)c1)C(F)(F)F [Example 109-7]
3,> 7.00,CC(=O)Nc1cc(Nc2nccc(OC3CCOCC3)n2)cc(-c2cnc(C3(O)CCC3)s2)c1 [Example 109-8]
4,> 7.00,Nc1cc(Nc2nccc(OC3CCOCC3)n2)cc(-c2cnc(C3(O)CCC3)s2)c1 [Example 109-9]
5,> 7.00,NC(=O)Nc1cc(Nc2nccc(OC3CCNCC3)n2)cc(-c2cnc(C3(O)CCC3)s2)c1 [Example 109-11]
6,> 7.00,Nc1cc(Nc2nccc(OC3CCNCC3)n2)cc(-c2cnc(C3(O)CCC3)s2)c1 [Example 109-12]
7,> 7.00,Nc1cc(Nc2nccc(OC3CNC3)n2)cc(-c2cnc(C3(O)CCC3)s2)c1 [Example 109-14]

# Same assay, conditions: rhSYK Activity, Table 113A
row,pIC50,Compound
1,> 7.00,COCCOc1ccnc(Nc2cc(C)cc(-c3cnc(C4(O)CCC(C(=O)O)CC4)s3)c2)n1 (centres unmarked) [Example 113A-1]
2,> 7.00,COCCCOc1ccnc(Nc2cc(C)cc(-c3cnc([C@]4(O)CC[C@@H](C(=O)O)CC4)s3)c2)n1 [Example 113A-2]
3,> 7.00,O=C(O)[C@H]1CC[C@](O)(c2ncc(-c3cc(Cl)cc(Nc4nccc(C(F)(F)F)n4)c3)s2)CC1 [Example 113A-3]
4,> 7.00,Cc1cc(Nc2nccc(C)n2)cc(-c2cnc(C3(O)CCC(C(=O)O)C(C)C3)s2)c1 (centres unmarked) [Example 113A-4]
5,> 7.00,COC(=O)C1CCC(O)(c2ncc(-c3cc(C)cc(Nc4nccc(C)n4)c3)s2)CC1C (centres unmarked) [Example 113A-8]
6,6.00 to 7.00,COC(=O)C1CCC(O)(c2ncc(-c3cc(C)cc(Nc4nccc(C)n4)c3)s2)CC1C (centres unmarked) [Example 113A-9]
7,> 7.00,COC(=O)C1CCC(O)(c2ncc(-c3cc(C)cc(Nc4nccc(C)n4)c3)s2)CC1C (centres unmarked) [Example 113A-10]
8,> 7.00,COC(=O)C1CCC(O)(c2ncc(-c3cc(C)cc(Nc4nccc(C)n4)c3)s2)CC1C (centres unmarked) [Example 113A-11]
9,6.00 to 7.00,COC(=O)C1CCC(O)(c2ncc(-c3cc(C)cc(Nc4nccc(C)n4)c3)s2)CC1C (centres unmarked) [Example 113A-12]
10,6.00 to 7.00,COC(=O)C1CCC(O)(c2ncc(-c3cc(C)cc(Nc4nccc(C)n4)c3)s2)CC1C (centres unmarked) [Example 113A-13]
11,> 7.00,CCc1ccnc(Nc2cc(C)cc(-c3cnc(C4(O)CCC(C(=O)O)C(C)C4)s3)c2)n1 (centres unmarked) [Example 113A-14]
12,> 7.00,COc1ccnc(Nc2cc(C)cc(-c3cnc([C@@]4(O)CC[C@H](C(=O)O)[C@H](C)C4)s3)c2)n1 [Example 113A-16]
13,> 7.00,Cc1cc(Nc2ncc(F)c(C)n2)cc(-c2cnc([C@]3(O)CC[C@@H](C(=O)O)[C@@H](C)C3)s2)c1 [Example 113A-19]
14,> 7.00,Cc1cc(Nc2nccc(C3CC3)n2)cc(-c2cnc([C@]3(O)CC[C@@H](C(=O)O)[C@@H](C)C3)s2)c1 [Example 113A-20]
15,> 7.00,Cc1cc(Nc2nccc(C3CC3)n2)cc(-c2cnc([C@@]3(O)CC[C@H](C(=O)O)[C@H](C)C3)s2)c1 [Example 113A-21]
16,> 7.00,Cc1cc(Nc2nccc(C3CC3)n2)cc(-c2cnc(C3(O)CCC(C(=O)O)C(C)C3)s2)c1 (centres unmarked) [Example 113A-22]
17,> 7.00,Cc1ccnc(Nc2cc(-c3cnc(C4(O)CCC(C(=O)O)C(C)C4)s3)cc(C3CC3)c2)n1 (centres unmarked) [Example 113A-23]
18,> 7.00,Cc1cc(Nc2nccc(C(C)C)n2)cc(-c2cnc([C@@]3(O)CC[C@H](C(=O)O)[C@H](C)C3)s2)c1 [Example 113A-25]
19,> 7.00,Cc1cc(Nc2nccc(C(C)C)n2)cc(-c2cnc([C@]3(O)CC[C@@H](C(=O)O)[C@@H](C)C3)s2)c1 [Example 113A-26]
20,> 7.00,Cc1cc(Nc2ncc(Cl)c(C)n2)cc(-c2cnc([C@@]3(O)CC[C@H](C(=O)O)[C@H](C)C3)s2)c1 [Example 113A-27]
21,> 7.00,Cc1cc(Nc2ncc(Cl)c(C)n2)cc(-c2cnc([C@]3(O)CC[C@@H](C(=O)O)[C@@H](C)C3)s2)c1 [Example 113A-28]

row,pIC50,Compound
1,> 7.00,CCOC(=O)C1CCC(O)(c2ncc(-c3cc(C)cc(Nc4nccc(CC)n4)c3)s2)CC1C (centres unmarked) [Example 113A-31]
2,> 7.00,Cc1cc(Nc2ncc(F)c(C3CC3)n2)cc(-c2cnc([C@@]3(O)CC[C@H](C(=O)O)[C@H](C)C3)s2)c1 [Example 113A-33]
3,> 7.00,Cc1cc(Nc2ncc(F)c(C3CC3)n2)cc(-c2cnc([C@]3(O)CC[C@@H](C(=O)O)[C@@H](C)C3)s2)c1 [Example 113A-34]
4,> 7.00,Cc1cc(Nc2nccc(OC(C)C)n2)cc(-c2cnc([C@]3(O)CC[C@@H](C(=O)O)[C@@H](C)C3)s2)c1 [Example 113A-35]
5,> 7.00,COc1nc(Nc2cc(C)cc(-c3cnc([C@@]4(O)CC[C@H](C(=O)O)[C@H](C)C4)s3)c2)ncc1Cl [Example 113A-36]
6,> 7.00,COc1nc(Nc2cc(C)cc(-c3cnc([C@]4(O)CC[C@@H](C(=O)O)[C@@H](C)C4)s3)c2)ncc1Cl [Example 113A-37]
7,> 7.00,COCCOc1ccnc(Nc2cc(C)cc(-c3cnc(C4(O)CCC(C(=O)O)C(C)C4)s3)c2)n1 (centres unmarked) [Example 113A-38]
8,> 7.00,COCCCOc1ccnc(Nc2cc(C)cc(-c3cnc(C4(O)CCC(C(=O)O)C(C)C4)s3)c2)n1 (centres unmarked) [Example 113A-40]
9,> 7.00,COCc1cc(Nc2nccc(C(F)(F)F)n2)cc(-c2cnc(C3(O)CCC(C(=O)O)C(C)C3)s2)c1 (centres unmarked) [Example 113A-42]
10,> 7.00,CCOC(=O)C1CCC(O)(c2ncc(-c3cc(C)cc(Nc4nccc(OCCOC)n4)c3)s2)CC1C (centres unmarked) [Example 113A-43]
11,> 7.00,CCOC(=O)C1CCC(O)(c2ncc(-c3cc(C)cc(Nc4nccc(OCCCOC)n4)c3)s2)CC1C (centres unmarked) [Example 113A-47]
12,> 7.00,CCc1ccnc(Nc2cc(C)cc(-c3cnc([C@@]4(O)CC[C@H](C(=O)O)C(C)(C)C4)s3)c2)n1 [Example 113A-49]
13,> 7.00,COC(=O)[C@H]1CC[C@](O)(c2ncc(-c3cc(C)cc(Nc4nccc(C#N)n4)c3)s2)CC1(C)C [Example 113A-50]
14,> 7.00,Cc1cc(Nc2nccc(C3CC3)n2)cc(-c2cnc(C3(O)CCC(C(=O)O)C(C)(C)C3)s2)c1 (centres unmarked) [Example 113A-51]
15,> 7.00,Cc1cc(Nc2nccc(C(C)C)n2)cc(-c2cnc(C3(O)CCC(C(=O)O)C(C)(C)C3)s2)c1 (centres unmarked) [Example 113A-52]
16,> 7.00,CCc1ccnc(Nc2cc(C)cc(-c3cnc([C@@]4(O)CC[C@H](C(=O)OC)C(C)(C)C4)s3)c2)n1 [Example 113A-53]
17,> 7.00,COC(=O)[C@H]1CC[C@](O)(c2ncc(-c3cc(C)cc(Nc4nccc(OC)n4)c3)s2)CC1(C)C [Example 113A-54]
18,> 7.00,COC(=O)[C@@H]1CC[C@@](O)(c2ncc(-c3cc(C)cc(Nc4nccc(OC)n4)c3)s2)CC1(C)C [Example 113A-55]
19,> 7.00,COC(=O)C1CCC(O)(c2ncc(-c3cc(C)cc(Nc4nccc(C5CC5)n4)c3)s2)CC1(C)C (centres unmarked) [Example 113A-56]
20,> 7.00,Cc1cc(Nc2ncc(F)c(C3CC3)n2)cc(-c2cnc(C3(O)CCC(C(=O)O)C(C)(C)C3)s2)c1 (centres unmarked) [Example 113A-57]
21,> 7.00,Cc1cc(Nc2ncc(F)c(C3CC3)n2)cc(-c2cnc([C@@]3(O)CC[C@H](C(=O)O)C(C)(C)C3)s2)c1 [Example 113A-58]
